Measurements as given in patent US11478479B2, “Dosing with an azolopyrimidine compound” (ARCUS BIOSCIENCES, INC., priority 2018, dated 2022).

What was measured:
A2aR = biological target: T1, A2aR (Homo sapiens, UniProt P29274); assay: pCREB (marker for A2R inhibition) by flow cytometry in blood CD8+ T cells stimulated ex vivo with 5 μM NECA
T1 construct: all subjects responded to 5 μM NECA by increasing the levels of pCREB in their blood CD8+ T cells; endogenous in cells; host or cells: blood CD8+ T cells of trial subjects (ex vivo)
Excerpt: The assessment of pCREB (a marker for A2R inhibition) by flow cytometry will be conducted during the study.

[1] = Single ascending dose (SAD) pharmacokinetics, Compound I in plasma; assay type: in vivo, human
Excerpt: The SAD part consists of 5 groups of 8 healthy young male and female participants, gender balanced to the extent possible, receiving a single oral dose in Groups 1 to 4 or 2 doses in Group 5 of Compound I or placebo (randomized 3:1, active vs placebo, respectively). All participants in the SAD portion of the study must be fasting prior to receiving Compound I. All groups will be evaluated based on pharmacokinetic (PK), safety and tolerability prior to escalation to the next highest group or starting the MAD portion of the study.
For Groups 1 to 4, the study drug will be administered with the participant in the upright position. Study drug will be administered to participants between 08:00 and 9:00 hours in the morning. Before the morning dose, participants will be fasted overnight for at least 10 hours following a light supper on the evening before. Within a period, dosing should be at the same time each day 15 minutes. The study drug will be swallowed together with 240 mL tap water. The study drug should not be chewed. Fasting will continue for a period of 4 hours after drug administration. During fasting, no fluids are allowed except water; however, water is not allowed from 2 hours pre-dose until 1 hour post-dose. When not fasting, non-caffeinated fluids are allowed ad libitum. […]

[2] = Safety and tolerability in healthy volunteers; assay type: in vivo, human; conditions: doses of up to 150 mg
Excerpt: Safety and tolerability assessments will consist of adverse events (AEs), clinical laboratory, vital signs, 12-lead ECG, telemetry, physical examination, Bond and Lader Visual Analog Scale (VAS) of Mood and Alertness, and Digit Symbol Substitution Test (DSST). Assessments will be performed in accordance with the schedules of assessments.

T1 sequence (P29274 whole entry): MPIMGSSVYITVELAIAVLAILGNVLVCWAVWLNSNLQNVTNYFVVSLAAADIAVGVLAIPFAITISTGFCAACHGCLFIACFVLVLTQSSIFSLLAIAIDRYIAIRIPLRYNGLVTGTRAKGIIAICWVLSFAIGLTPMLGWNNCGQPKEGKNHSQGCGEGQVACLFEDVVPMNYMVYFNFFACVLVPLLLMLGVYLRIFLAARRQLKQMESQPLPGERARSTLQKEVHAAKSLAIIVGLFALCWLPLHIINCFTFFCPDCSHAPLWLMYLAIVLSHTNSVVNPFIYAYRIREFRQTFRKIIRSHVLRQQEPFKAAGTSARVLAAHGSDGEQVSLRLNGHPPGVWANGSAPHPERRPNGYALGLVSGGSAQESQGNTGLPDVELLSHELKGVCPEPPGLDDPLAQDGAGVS

With `Cc1c(C#N)cccc1-c1cc(-c2cn(Cc3cccc(C(C)(C)O)n3)nn2)nc(N)n1` [Compound I, 3-(2-amino-6-(1-((6-(2-hydroxypropan-2-yl)pyridin-2-yl)methyl)-1H-1,2,3-triazol-4-yl)pyrimidin-4-yl)-2-methylbenzonitrile] the inhibition at 75 mg (A2aR; 75 mg once daily, in the presence of 5 μM NECA, projected from single-dose PK profiles, FIG. 2, read-out: expected inhibition of A2R at steady-state plasma levels) was 90%, the “inhibition of NECA-mediated activation of A2aR” value (A2aR; 150 mg, 24 hours after dosing, 5 μM NECA) was “approximately 90%” and the “pCREB response relative to the response seen pre-dose” value (A2aR; 150 mg, 24 hours after dosing, blood CD8+ T cells, 5 μM NECA, FIG. 3) was “approximately 10%”. The “pCREB activation signal in response to NECA” value (A2aR; 150 mg, two hours after dosing, blood CD8+ T cells, 5 μM NECA, FIG. 3) was “no detectable increase in pCREB levels”, the half-life ([1]; both sexes, human, plasma, healthy volunteers, following a single oral dose) was roughly 20 h and the “plasma levels of Compound I with increased doses” value ([1]; healthy volunteers, 10, 25, 75 and 150 mg, FIG. 1) was “dose proportional increases”. The safety issues [2] was “no safety issues have been identified”.
